# Tests used:
# Test in all cases: relative viability (nuclei count vs DMSO), 5 days (fraction); higher = more cells survive
# [1] = system: CAL-12T
# Method in brief: (§1)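 Relative viability divides the nuclei count in treated wells by that in vehicle wells. Lung cancer cell lines were seeded in 1536-well plates, dosed by pin tool the next day, and fixed and stained after 5 days in one step with final 0.05% Triton X-100, 1% formaldehyde and 1 ug/ml Hoechst. Dosing was a single drug or a fixed anchor-drug dose plus five library-drug doses (not always all listed) in √10 steps, and values are medians of duplicate plates imaged at 4×.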
# [2] = system: EKVX
# Method in brief: as §1
# [3] = system: H3255
# Method in brief: as §1
# [4] = system: HCC-15
# Method in brief: as §1
# [5] = system: HCC-827
# Method in brief: as §1
# [6] = system: LCLC-97TM1
# Method in brief: as §1
# [7] = system: LK-2
# Method in brief: as §1
# [8] = system: NCI-H1355
# Method in brief: as §1
# [9] = system: NCI-H1650
# Method in brief: as §1
# [10] = system: NCI-H1734
# Method in brief: as §1
# [11] = system: NCI-H1755
# Method in brief: as §1
# [12] = system: NCI-H1975
# Method in brief: as §1
# [13] = system: NCI-H2228
# Method in brief: as §1
# [14] = system: NCI-H2342
# Method in brief: as §1
# [15] = system: NCI-H2405
# Method in brief: as §1
# [16] = system: NCI-H322M
# Method in brief: as §1
# [17] = system: NCI-H520
# Method in brief: as §1
# [18] = system: NCI-H661
# Method in brief: as §1
# [19] = system: PC-14
# Method in brief: as §1
# [20] = system: PC-3 [JPC-3]
# Method in brief: as §1
# [21] = system: RERF-LC-KJ
# Method in brief: as §1
smiles,measurement,setting,value
O=c1cc(N2CCOCC2)oc2c(-c3cccc4c3sc3ccccc34)cccc12 + CC(=O)c1c(C)c2cnc(Nc3ccc(N4CCNCC4)cn3)nc2n(C2CCCC2)c1=O [Palbociclib] (partner 0.5 µM),relative viability,[1]; first compound 0.01 µM,0.444
same,relative viability,[1]; first compound 0.03162 µM,0.401
same,relative viability,[1]; first compound 0.1 µM,0.587
same,relative viability,[1]; first compound 0.3162 µM,0.528
same,relative viability,[1]; first compound 1 µM,0.436
same,relative viability,[2]; first compound 0.01 µM,0.376
same,relative viability,[2]; first compound 0.03162 µM,0.363
same,relative viability,[2]; first compound 0.1 µM,0.484
same,relative viability,[2]; first compound 0.3162 µM,0.43
same,relative viability,[2]; first compound 1 µM,0.332
same,relative viability,[3]; first compound 0.01 µM,0.314
same,relative viability,[3]; first compound 0.03162 µM,0.325
same,relative viability,[3]; first compound 0.1 µM,0.306
same,relative viability,[3]; first compound 0.3162 µM,0.314
same,relative viability,[3]; first compound 1 µM,0.312
same,relative viability,[4]; first compound 0.01 µM,0.73
same,relative viability,[4]; first compound 0.03162 µM,0.709
same,relative viability,[4]; first compound 0.1 µM,0.891
same,relative viability,[4]; first compound 0.3162 µM,0.624
same,relative viability,[4]; first compound 1 µM,0.727
same,relative viability,[5]; first compound 0.01 µM,0.52
same,relative viability,[5]; first compound 0.03162 µM,0.485
same,relative viability,[5]; first compound 0.1 µM,0.457
same,relative viability,[5]; first compound 0.3162 µM,0.53
same,relative viability,[5]; first compound 1 µM,0.47
same,relative viability,[6]; first compound 0.01 µM,0.218
same,relative viability,[6]; first compound 0.03162 µM,0.194
same,relative viability,[6]; first compound 0.1 µM,0.241
same,relative viability,[6]; first compound 0.3162 µM,0.21
same,relative viability,[6]; first compound 1 µM,0.218
same,relative viability,[7]; first compound 0.01 µM,0.83
same,relative viability,[7]; first compound 0.03162 µM,0.768
same,relative viability,[7]; first compound 0.1 µM,0.587
same,relative viability,[7]; first compound 0.3162 µM,0.638
same,relative viability,[7]; first compound 1 µM,0.77
same,relative viability,[8]; first compound 0.01 µM,0.424
same,relative viability,[8]; first compound 0.03162 µM,0.403
same,relative viability,[8]; first compound 0.1 µM,0.412
same,relative viability,[8]; first compound 0.3162 µM,0.39
same,relative viability,[8]; first compound 1 µM,0.392
same,relative viability,[9]; first compound 0.01 µM,0.299
same,relative viability,[9]; first compound 0.03162 µM,0.363
same,relative viability,[9]; first compound 0.1 µM,0.346
same,relative viability,[9]; first compound 0.3162 µM,0.368
same,relative viability,[9]; first compound 1 µM,0.317
same,relative viability,[10]; first compound 0.01 µM,0.324
same,relative viability,[10]; first compound 0.03162 µM,0.342
same,relative viability,[10]; first compound 0.1 µM,0.434
same,relative viability,[10]; first compound 0.3162 µM,0.352
same,relative viability,[10]; first compound 1 µM,0.374
same,relative viability,[11]; first compound 0.01 µM,0.475
same,relative viability,[11]; first compound 0.03162 µM,0.455
same,relative viability,[11]; first compound 0.1 µM,0.488
same,relative viability,[11]; first compound 0.3162 µM,0.457
same,relative viability,[11]; first compound 1 µM,0.456
same,relative viability,[12]; first compound 0.01 µM,0.61
same,relative viability,[12]; first compound 0.03162 µM,0.609
same,relative viability,[12]; first compound 0.1 µM,0.626
same,relative viability,[12]; first compound 0.3162 µM,0.529
same,relative viability,[12]; first compound 1 µM,0.591
same,relative viability,[13]; first compound 0.01 µM,0.943
same,relative viability,[13]; first compound 0.03162 µM,0.749
same,relative viability,[13]; first compound 0.1 µM,0.802
same,relative viability,[13]; first compound 0.3162 µM,0.683
same,relative viability,[13]; first compound 1 µM,0.83
same,relative viability,[14]; first compound 0.01 µM,0.539
same,relative viability,[14]; first compound 0.03162 µM,0.502
same,relative viability,[14]; first compound 0.1 µM,0.537
same,relative viability,[14]; first compound 0.3162 µM,0.529
same,relative viability,[14]; first compound 1 µM,0.508
same,relative viability,[15]; first compound 0.01 µM,0.566
same,relative viability,[15]; first compound 0.03162 µM,0.542
same,relative viability,[15]; first compound 0.1 µM,0.531
same,relative viability,[15]; first compound 0.3162 µM,0.513
same,relative viability,[15]; first compound 1 µM,0.527
same,relative viability,[16]; first compound 0.01 µM,0.484
same,relative viability,[16]; first compound 0.03162 µM,0.472
same,relative viability,[16]; first compound 0.3162 µM,0.462
same,relative viability,[16]; first compound 1 µM,0.45
same,relative viability,[17]; first compound 0.01 µM,0.238
same,relative viability,[17]; first compound 0.03162 µM,0.224
same,relative viability,[17]; first compound 0.1 µM,0.207
same,relative viability,[17]; first compound 0.3162 µM,0.235
same,relative viability,[17]; first compound 1 µM,0.202
same,relative viability,[18]; first compound 0.01 µM,0.417
same,relative viability,[18]; first compound 0.03162 µM,0.41
same,relative viability,[18]; first compound 0.1 µM,0.375
same,relative viability,[18]; first compound 0.3162 µM,0.416
same,relative viability,[18]; first compound 1 µM,0.398
same,relative viability,[19]; first compound 0.01 µM,0.436
same,relative viability,[19]; first compound 0.03162 µM,0.479
same,relative viability,[19]; first compound 0.1 µM,0.541
same,relative viability,[19]; first compound 0.3162 µM,0.581
same,relative viability,[19]; first compound 1 µM,0.596
same,relative viability,[20]; first compound 0.01 µM,0.548
same,relative viability,[20]; first compound 0.03162 µM,0.519
same,relative viability,[20]; first compound 0.1 µM,0.306
same,relative viability,[20]; first compound 0.3162 µM,0.557
same,relative viability,[20]; first compound 1 µM,0.511
same,relative viability,[21]; first compound 0.01 µM,1.06
same,relative viability,[21]; first compound 0.03162 µM,1.1
same,relative viability,[21]; first compound 0.1 µM,1.04
same,relative viability,[21]; first compound 0.3162 µM,1.09
same,relative viability,[21]; first compound 1 µM,1.08

# From the supplement of paper PMC10307832
